{"source": "patent US20120122924A1", "about": "“NAMPT INHIBITORS” (ABBOTT LABORATORIES, priority 2010, published 2012)", "target": "recombinant, human, C-terminally-His tagged NAMPT (Homo sapiens, UniProt P43490)", "sequence (P43490 whole entry)": "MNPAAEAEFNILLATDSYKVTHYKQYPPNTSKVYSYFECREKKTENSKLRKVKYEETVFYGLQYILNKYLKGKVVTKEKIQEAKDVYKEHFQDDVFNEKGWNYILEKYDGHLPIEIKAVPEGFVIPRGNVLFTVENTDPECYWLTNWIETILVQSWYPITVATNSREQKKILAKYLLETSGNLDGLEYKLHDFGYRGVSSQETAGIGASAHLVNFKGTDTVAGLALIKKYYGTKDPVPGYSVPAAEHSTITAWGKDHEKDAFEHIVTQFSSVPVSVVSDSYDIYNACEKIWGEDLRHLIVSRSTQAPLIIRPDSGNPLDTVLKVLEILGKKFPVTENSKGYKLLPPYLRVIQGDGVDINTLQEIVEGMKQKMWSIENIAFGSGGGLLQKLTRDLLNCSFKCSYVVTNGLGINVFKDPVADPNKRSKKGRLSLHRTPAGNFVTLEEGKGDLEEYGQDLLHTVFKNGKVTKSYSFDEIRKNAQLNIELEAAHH", "assay": "Time-Resolved Fluorescence Resonance Energy Transfer (TR-FRET) binding assay of NAMPT", "conditions": "6.8 nM NAMPT, 200 nM probe (Oregon Green 488-conjugated APO866), 1 nM Tb-anti-His antibody, 2-3 hours", "procedure": "Determination of the utility of compounds having Formula (I) as binders to and inhibitors of NAMPT was performed using a Time-Resolved Fluorescence Resonance Energy Transfer (TR-FRET) binding assay.\nTime-Resolved Fluorescence Resonance Energy Transfer (TR-FRET) Binding Assay of NAMPT\nThe assay was carried out in 18 uL low volume plates (Owens Corning) in reaction buffer (50 mM HEPES (NaOH), pH 7.5, 100 mM NaCl, 10 mM MgCl2, 1 mM DTT, 1% Glycerol) using 6.8 nM recombinant, human, C-terminally-His tagged NAMPT, 1 nM Tb-anti-His antibody (Invitrogen, Cat # PV5895), and 200 nM probe (Oregon Green 488-conjugated APO866; A-1251667.0). Plates were covered, and reactions were carried out for 2-3 hours. Plates were read with Envision (Laser Lantha low volume protocol) after 2 to 3 hours. Excitation was carried out at 337 nm, and the ratio of emission of Oregon Green (520 nm) to terbium (492 nm) was determined and used to calculate IC50 values of test compounds."}
{"smiles": "O=C(Nc1ccc(-c2noc(Cc3ccccc3)n2)cc1)N1CCc2ccccc2C1", "note": "[Example 57, N-[4-(5-benzyl-1,2,4-oxadiazol-3-yl)phenyl]-3,4-dihydroisoquinoline-2(1H)-carboxamide]", "values": [{"measurement": "IC50", "result": 887, "unit": "nM"}]}
{"smiles": "CC(C)(C)CC(=O)Nc1ccc(NC(=O)N2CCc3ccccc3C2)cc1", "note": "[Example 71, N-{4-[(3,3-dimethylbutanoyl)amino]phenyl}-3,4-dihydroisoquinoline-2(1H)-carboxamide]", "values": [{"measurement": "IC50", "result": 2.75, "unit": "nM"}]}
{"smiles": "O=C(NCCCc1ccccc1)c1ccc(NC(=O)N2CCc3ccccc3C2)cc1", "note": "[Example 7, N-{4-[(3-phenylpropyl)carbamoyl]phenyl}-3,4-dihydroisoquinoline-2(1H)-carboxamide]", "values": [{"measurement": "IC50", "result": 20.7, "unit": "nM"}]}
{"smiles": "CCCC(=O)N1CC=C(c2ccc(NC(=O)N3CCc4ccccc4C3)cc2)CC1", "note": "[Example 44, N-[4-(1-butyryl-1,2,3,6-tetrahydropyridin-4-yl)phenyl]-3,4-dihydroisoquinoline-2(1H)-carboxamide]", "values": [{"measurement": "IC50", "result": 13.6, "unit": "nM"}]}
{"smiles": "O=C(NCCc1cccs1)c1ccc(NC(=O)N2CCc3ccccc3C2)cc1", "note": "[Example 17, N-(4-{[2-(2-thienyl)ethyl]carbamoyl}phenyl)-3,4-dihydroisoquinoline-2(1H)-carboxamide]", "values": [{"measurement": "IC50", "result": 178, "unit": "nM"}]}
{"smiles": "CCn1cc(-c2ccc(NC(=O)N3CCc4ccccc4C3)cc2)cn1", "note": "[Example 40, N-[4-(1-ethyl-1H-pyrazol-4-yl)phenyl]-3,4-dihydroisoquinoline-2(1H)-carboxamide]", "values": [{"measurement": "IC50", "result": 645, "unit": "nM"}]}
{"smiles": "O=C(COCc1ccccc1)Nc1ccc(NC(=O)N2CCc3ccccc3C2)cc1", "note": "[Example 63, N-(4-{[(benzyloxy)acetyl]amino}phenyl)-3,4-dihydroisoquinoline-2(1H)-carboxamide]", "values": [{"measurement": "IC50", "result": 10.7, "unit": "nM"}]}
{"smiles": "CS(=O)(=O)N1CC=C(c2ccc(NC(=O)N3CCc4ccccc4C3)cc2)CC1", "note": "[Example 53, N-{4-[1-(methylsulfonyl)-1,2,3,6-tetrahydropyridin-4-yl]phenyl}-3,4-dihydroisoquinoline-2(1H)-carboxamide]", "values": [{"measurement": "IC50", "result": 112, "unit": "nM"}]}
{"smiles": "O=C(Nc1ccc(NC(=O)N2CCc3ccccc3C2)cc1)c1ccsc1", "note": "[Example 85, N-{4-[(3-thienylcarbonyl)amino]phenyl}-3,4-dihydroisoquinoline-2(1H)-carboxamide]", "values": [{"measurement": "IC50", "result": 242, "unit": "nM"}]}
{"smiles": "O=C(Nc1cnn(Cc2ccccc2)c1)c1ccc(NC(=O)N2CCc3ccccc3C2)cc1", "note": "[Example 14, N-{4-[(1-benzyl-1H-pyrazol-4-yl)carbamoyl]phenyl}-3,4-dihydroisoquinoline-2(1H)-carboxamide]", "values": [{"measurement": "IC50", "result": 47.1, "unit": "nM"}]}
{"smiles": "O=C(Nc1ccc(NC(=O)N2CCc3ccccc3C2)cc1)C1CCOC1", "note": "(racemic) [Example 75, N-{4-[((3R)-tetrahydrofuran-3-ylcarbonyl)amino]phenyl}-3,4-dihydroisoquinoline-2(1H)-carboxamide and N-{4-[((3S)-tetrahydrofuran-3-ylcarbonyl)amino]phenyl}-3,4-dihydroisoquinoline-2(1H)-carboxamide]", "values": [{"measurement": "IC50", "result": 196, "unit": "nM"}]}
{"smiles": "O=C(NCCCc1ccccc1)c1ccc(NC(=O)N2CCc3cc(F)ccc3C2)cc1", "note": "[Example 3, 6-fluoro-N-{4-[(3-phenylpropyl)carbamoyl]phenyl}-3,4-dihydroisoquinoline-2(1H)-carboxamide]", "values": [{"measurement": "IC50", "result": 13.8, "unit": "nM"}]}
{"smiles": "O=C(NCCCc1ccccc1)c1ccc(NC(=O)N2CCc3ccccc3C2)nc1", "note": "[Example 9, N-{5-[(3-phenylpropyl)carbamoyl]pyridin-2-yl}-3,4-dihydroisoquinoline-2(1H)-carboxamide]", "values": [{"measurement": "IC50", "result": 29.1, "unit": "nM"}]}
{"smiles": "CS(=O)(=O)Nc1cccc2c1CCN(C(=O)Nc1ccc(NC(=O)CC3CCCC3)cc1)C2", "note": "[Example 98, N-{4-[(cyclopentylacetyl)amino]phenyl}-5-[(methylsulfonyl)amino]-3,4-dihydroisoquinoline-2(1H)-carboxamide]", "values": [{"measurement": "IC50", "result": 3, "unit": "nM"}]}
{"smiles": "C[C@@H](O)Cn1cc(-c2ccc(NC(=O)N3CCc4ccccc4C3)cc2)cn1", "note": "[Example 36, N-{4-[1-((2R)-2-hydroxypropyl)-1H-pyrazol-4-yl]phenyl}-3,4-dihydroisoquinoline-2(1H)-carboxamide]", "values": [{"measurement": "IC50", "result": 185, "unit": "nM"}]}
{"smiles": "O=C(Nc1ccc(C2=CCN(Cc3ccccc3)CC2)cc1)N1CCc2ccccc2C1", "note": "[Example 52, N-[4-(1-benzyl-1,2,3,6-tetrahydropyridin-4-yl)phenyl]-3,4-dihydroisoquinoline-2(1H)-carboxamide]", "values": [{"measurement": "IC50", "result": 80.5, "unit": "nM"}]}
{"smiles": "CC(C)C(=O)N1CC=C(c2ccc(NC(=O)N3CCc4ccccc4C3)cc2)CC1", "note": "[Example 46, N-[4-(1-isobutyryl-1,2,3,6-tetrahydropyridin-4-yl)phenyl]-3,4-dihydroisoquinoline-2(1H)-carboxamide]", "values": [{"measurement": "IC50", "result": 15.3, "unit": "nM"}]}
{"smiles": "O=C(NCCc1cccs1)c1ccc(NC(=O)N2CCc3ccccc3C2)cn1", "note": "[Example 22, N-(6-{[2-(2-thienyl)ethyl]carbamoyl}pyridin-3-yl)-3,4-dihydroisoquinoline-2(1H)-carboxamide]", "values": [{"measurement": "IC50", "result": 309, "unit": "nM"}]}
{"smiles": "CC(C)CCc1nc(-c2ccc(NC(=O)N3CCc4ccccc4C3)cc2)no1", "note": "[Example 58, N-{4-[5-(3-methylbutyl)-1,2,4-oxadiazol-3-yl]phenyl}-3,4-dihydroisoquinoline-2(1H)-carboxamide]", "values": [{"measurement": "IC50", "result": 1260, "unit": "nM"}]}
{"smiles": "CC(C)Cn1cc(-c2ccc(NC(=O)N3CCc4ccccc4C3)cc2)cn1", "note": "[Example 34, N-[4-(1-isobutyl-1H-pyrazol-4-yl)phenyl]-3,4-dihydroisoquinoline-2(1H)-carboxamide]", "values": [{"measurement": "IC50", "result": 38.8, "unit": "nM"}]}
{"smiles": "COC1CCC(C(=O)Nc2ccc(NC(=O)N3CCc4ccccc4C3)cc2)CC1", "note": "(centres unmarked) [Example 64, N-(4-{[(4-methoxycyclohexyl)carbonyl]amino}phenyl)-3,4-dihydroisoquinoline-2(1H)-carboxamide]", "values": [{"measurement": "IC50", "result": 55, "unit": "nM"}]}
{"smiles": "O=C(Cc1ccc(NC(=O)N2CCc3ccccc3C2)cc1)NCCc1cccs1", "note": "[Example 26, N-[4-(2-oxo-2-{[2-(2-thienyl)ethyl]amino}ethyl)phenyl]-3,4-dihydroisoquinoline-2(1H)-carboxamide]", "values": [{"measurement": "IC50", "result": 800, "unit": "nM"}]}
{"smiles": "O=C(NCCCc1ccccc1)c1ccc(NC(=O)N2CCc3cnccc3C2)cc1", "note": "[Example 4, N-{4-[(3-phenylpropyl)carbamoyl]phenyl}-3,4-dihydro-2,6-naphthyridine-2(1H)-carboxamide]", "values": [{"measurement": "IC50", "result": 15, "unit": "nM"}]}
{"smiles": "CC(C)CCNC(=O)c1ccc(NC(=O)N2CCc3ccccc3C2)cn1", "note": "[Example 18, N-{6-[(3-methylbutyl)carbamoyl]pyridin-3-yl}-3,4-dihydroisoquinoline-2(1H)-carboxamide]", "values": [{"measurement": "IC50", "result": 178, "unit": "nM"}]}
{"smiles": "Cc1cc(C(=O)Nc2ccc(NC(=O)N3CCc4ccccc4C3)cc2)c(C)o1", "note": "[Example 84, N-{4-[(2,5-dimethyl-3-furoyl)amino]phenyl}-3,4-dihydroisoquinoline-2(1H)-carboxamide]", "values": [{"measurement": "IC50", "result": 85.8, "unit": "nM"}]}
{"smiles": "O=C(Nc1ccc(NC(=O)N2CCc3ccccc3C2)cc1)c1ccccc1", "note": "[Example 80, N-[4-(benzoylamino)phenyl]-3,4-dihydroisoquinoline-2(1H)-carboxamide]", "values": [{"measurement": "IC50", "result": 191, "unit": "nM"}]}
{"smiles": "CC(C)CCNC(=O)c1ccc(NC(=O)N2CCc3ccncc3C2)cc1", "note": "[Example 28, N-{4-[(3-methylbutyl)carbamoyl]phenyl}-3,4-dihydro-2,7-naphthyridine-2(1H)-carboxamide]", "values": [{"measurement": "IC50", "result": 1250, "unit": "nM"}]}
{"smiles": "O=C(Nc1ccc(NC(=O)N2CCc3ccccc3C2)cc1)c1ccc[nH]1", "note": "[Example 86, N-{4-[(1H-pyrrol-2-ylcarbonyl)amino]phenyl}-3,4-dihydroisoquinoline-2(1H)-carboxamide]", "values": [{"measurement": "IC50", "result": 377, "unit": "nM"}]}
{"smiles": "CCOC(=O)CCCCCNC(=O)N1CCc2ccccc2C1", "note": "[Example 60, ethyl 6-[(3,4-dihydroisoquinolin-2(1H)-ylcarbonyl)amino]hexanoate]", "values": [{"measurement": "IC50", "result": 1370, "unit": "nM"}]}
